PMC5187867, “Crystal Structure of a Putative Cytochrome P450 Alkane Hydroxylase (CYP153D17) from Sphingomonas sp. PAMC 26605 and Its Conformational Substrate Binding” (International Journal of Molecular Sciences, 2016)

Target: CYP153D17 (Sphingomonas sp. PAMC 26605, UniProt A0ACD6BAR9)
Assay: UV-Vis spectral binding titration (substrate binding assay) of purified CYP153D17
Settings: 1 μM CYP153D17; for Kd: apparent dissociation constant from titration curves (A390-A420); for Spin Shift (%): shift in heme spin state from low-spin (Soret maximum at 420 nm) to high-spin (390 nm)
Description: To determine the binding affinity of CYP153D17, spectral binding titrations were performed with the alkanes (decane and dodecane) and fatty acids (capric acid, lauric acid, and myristic acid). All tested substrates changed the spectrum of CYP153D17, with a shift of the Soret band at 420 to 390 nm, which is typical of the high-spin form (Figure 2), after which the apparent dissociation constants from the titration curves (Kd values) were obtained (Table 1). Dodecane, capric acid, and lauric acid binding to CYP153D17 induced a ≥90% shift in the heme spin state from low-spin (Soret maximum at 420 nm) to high-spin (Soret maximum at 390 nm), whereas decane and myristic acid induced a ≥80% shift in the same heme spin state.
To determine whether CYP153D17 can bind alkanes and fatty acids, a UV-Vis (Ultraviolet-Visible) spectral binding titration assay was performed. Binding of the substrate to CYP153D17 induced a shift of the Soret band of the CYP absorption spectrum from A420 to A390 [30]. Alkanes (decane and dodecane) and fatty acids (capric acid, lauric acid, and myristic acid) were dissolved in ethanol to prepare stock solutions of different concentrations (0.4–5 mM) for each substrate. Binding of substrate to CYP153D17 was carried out by the consecutive addition of 1-μL aliquots from the stock solutions to 1 mL of 1 μM CYP153D17 solution, and the UV–Vis spectra of the mixture were recorded. To calculate Kd, the difference between adsorption at A390 and A420 was calculated, corrected with the A390-to-A420 value at 0 M substrate, and plotted against the substrate concentrations. The data were fitted to equations as described by Funhoff et al..

Chain of CYP153D17 (A0ACD6BAR9 1-407): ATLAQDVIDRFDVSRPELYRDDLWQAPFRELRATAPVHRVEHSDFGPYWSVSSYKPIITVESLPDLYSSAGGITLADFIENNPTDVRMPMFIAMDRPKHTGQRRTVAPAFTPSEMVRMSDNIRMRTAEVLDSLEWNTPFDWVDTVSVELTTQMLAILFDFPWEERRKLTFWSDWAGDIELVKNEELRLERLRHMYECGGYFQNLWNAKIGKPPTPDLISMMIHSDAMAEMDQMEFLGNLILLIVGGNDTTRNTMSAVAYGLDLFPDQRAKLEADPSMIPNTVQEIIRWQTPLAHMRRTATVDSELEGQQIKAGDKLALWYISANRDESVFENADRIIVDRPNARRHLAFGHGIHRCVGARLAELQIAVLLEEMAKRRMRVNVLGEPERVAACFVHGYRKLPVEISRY

Row | SMILES | Kd | Spin Shift (%) | Spin Shift (%) (listed as capric acid) | Spin Shift (%) (listed as decane) | Spin Shift (%) (listed as lauric acid) | Spin Shift (%) (listed as myristic acid)
1 | CCCCCCCCCC(=O)O [Capric acid, capric acid] | 460 ± 410 nM | ≥90% | ≥ 90% | – | – | –
2 | CCCCCCCCCC [Decane, decane] | 590 ± 690 nM | ≥80% | – | ≥ 80% | – | –
3 | CCCCCCCCCCCC [Dodecane, dodecane] | 420 ± 140 nM | – | – | – | – | –
4 | CCCCCCCCCCCC(=O)O [Lauric acid, lauric acid] | 490 ± 700 nM | ≥90% | – | – | ≥ 90% | –
5 | CCCCCCCCCCCCCC(=O)O [Myristic acid, myristic acid] | 540 ± 330 nM | ≥80% | – | – | – | ≥ 80%
